Assay results published in patent publication US4528020A, “Urease inhibited urea based fertilizer compositions” (Allied Corporation, priority 1983, dated 1985).

Molecular target: jack bean urease (Canavalia ensiformis, UniProt P07374)
Experiment: Urease inhibition in solution (modified Bremner procedure, purified jack bean urease in aqueous solution)
Assay type: biochemical
Conditions: commercial purified jack bean urease
Experimental: Efficacy tests were conducted with jack bean urease. The procedure of Bremner (See. L. A. Douglas, J. M. Bremner, Soil Biology Biochem., 3, 859-859 (1970), and references cited therein was modified by replacing the soil as the source of urease with commercial purified jack bean urease. The incubation then proceeds in aqueous solution. The results are set forth in the following Table I.

Sequence of jack bean urease (P07374 whole entry, looked up): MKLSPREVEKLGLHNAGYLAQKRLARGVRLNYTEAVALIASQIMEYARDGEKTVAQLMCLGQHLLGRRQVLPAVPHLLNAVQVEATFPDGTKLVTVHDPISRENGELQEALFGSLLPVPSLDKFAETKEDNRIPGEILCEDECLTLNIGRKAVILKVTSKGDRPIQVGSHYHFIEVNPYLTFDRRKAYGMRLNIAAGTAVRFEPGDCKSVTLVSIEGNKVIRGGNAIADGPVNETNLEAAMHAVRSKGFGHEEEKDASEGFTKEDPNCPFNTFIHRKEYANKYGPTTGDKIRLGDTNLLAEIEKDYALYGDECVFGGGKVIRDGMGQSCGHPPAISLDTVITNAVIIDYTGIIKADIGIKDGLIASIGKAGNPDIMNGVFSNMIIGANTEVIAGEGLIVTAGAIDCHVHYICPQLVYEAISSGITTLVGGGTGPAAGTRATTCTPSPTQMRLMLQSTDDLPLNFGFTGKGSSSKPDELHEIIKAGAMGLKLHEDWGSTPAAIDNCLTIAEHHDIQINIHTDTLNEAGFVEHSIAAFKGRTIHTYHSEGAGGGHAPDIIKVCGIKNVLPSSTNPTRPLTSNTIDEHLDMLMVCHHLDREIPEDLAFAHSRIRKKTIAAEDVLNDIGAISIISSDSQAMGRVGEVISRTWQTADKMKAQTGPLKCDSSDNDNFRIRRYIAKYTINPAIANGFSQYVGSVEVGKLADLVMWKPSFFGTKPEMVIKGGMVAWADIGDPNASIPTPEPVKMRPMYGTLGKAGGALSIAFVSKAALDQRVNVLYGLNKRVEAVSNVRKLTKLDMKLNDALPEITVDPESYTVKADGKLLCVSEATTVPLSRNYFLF

NP(N)(=O)NC(=O)c1ccc(N2C(=O)C=CC2=O)cc1 [N-(diaminophosphinyl)-4-(1'-maleimido)benzamide]
inhibition at 1 µM (compound at 10^-6 M, read-out: % Inhibition at Specific Concentration 10^-6 M): 59%
inhibition at 0.1 µM (compound at 10^-7 M, read-out: % Inhibition at Specific Concentration 10^-7 M): 8%
